Measured values as given in patent publication US4283418A, “Guanidinobenzoic acid derivatives and process for their preparation” (Ono Pharmaceutical Co., Ltd., priority 1979, dated 1981).

Legend:
[1] = target: T1, trypsin (Bos taurus, UniProt P00760); test: Inhibition of trypsin hydrolysis of p-tosylarginine methyl ester in vitro; assay type: biochemical; settings: trypsin 0.5 μg, p-tosylarginine methyl ester 20 mM, Tris-HCl pH 8.5, 37° C., 30 minutes; read-out: 50% Inhibition Concentration Anti-trypsin
T1 sequence (P00760 24-246): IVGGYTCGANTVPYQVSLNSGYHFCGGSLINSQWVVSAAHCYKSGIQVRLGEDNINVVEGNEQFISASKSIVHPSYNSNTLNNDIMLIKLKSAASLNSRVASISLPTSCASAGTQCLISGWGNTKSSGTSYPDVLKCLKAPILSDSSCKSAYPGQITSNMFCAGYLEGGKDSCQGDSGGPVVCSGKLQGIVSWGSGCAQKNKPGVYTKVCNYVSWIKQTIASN
Protocol: (§1) The inhibitory activities of representative compounds of the general formula [I] against plasmin and trypsin in vitro were determined in a manner similar to the method described by M. Muramatsu et al J. Biochemistry, 58, 214 (1964) for trypsin and the method described by M. Muramatsu et al ibid, 57, 402 (1965) for plasmin. The procedures used are described more specifically below.
(1) Trypsin: 0.4 ml of trypsin (1.25 μg/ml), 0.5 ml of p-tosylarginine methyl ester (20 mM) in Tris-HCl buffer (pH 8.5) and 0.1 ml of a solution of each of the following compounds represented by the general formula [I] at various concentrations was reacted at a temperature of 37° C. for 30 minutes, and the concentration of each of the test compounds at which the activity of trypsin 0.5 μg to hydrolyze p-tosylarginine methyl ester was inhibited to an extent of 50% is shown in Table 1 below.

[2] = target: T2, plasmin (Homo sapiens, UniProt P00747); test: Inhibition of plasmin in vitro (human euglobulin, streptokinase, fibrinogen); assay type: biochemical; settings: borate saline buffer pH 7.4, 37° C., 30 minutes, read-out: 50% Inhibition Concentration Anti-Plasmin
T2 construct: from tissue
Protocol: as §1
(2) Plasmin: 0.1 ml of human euglobulin (10 fold dilution), 0.1 ml of streptokinase (2000 unit/ml), 0.4 ml of fibrinogen (4% solution), 0.3 ml of a 0.1 M borate saline buffer solution (pH 7.4) and 0.1 ml of a solution of each of the following compounds represented by the general formula [I] at various concentrations was allowed to react at a temperature of 37° C. for 30 minutes.

[3] = Solubility in water; assay type: physicochemical

T2 sequence (P00747 97-580 limits assumed): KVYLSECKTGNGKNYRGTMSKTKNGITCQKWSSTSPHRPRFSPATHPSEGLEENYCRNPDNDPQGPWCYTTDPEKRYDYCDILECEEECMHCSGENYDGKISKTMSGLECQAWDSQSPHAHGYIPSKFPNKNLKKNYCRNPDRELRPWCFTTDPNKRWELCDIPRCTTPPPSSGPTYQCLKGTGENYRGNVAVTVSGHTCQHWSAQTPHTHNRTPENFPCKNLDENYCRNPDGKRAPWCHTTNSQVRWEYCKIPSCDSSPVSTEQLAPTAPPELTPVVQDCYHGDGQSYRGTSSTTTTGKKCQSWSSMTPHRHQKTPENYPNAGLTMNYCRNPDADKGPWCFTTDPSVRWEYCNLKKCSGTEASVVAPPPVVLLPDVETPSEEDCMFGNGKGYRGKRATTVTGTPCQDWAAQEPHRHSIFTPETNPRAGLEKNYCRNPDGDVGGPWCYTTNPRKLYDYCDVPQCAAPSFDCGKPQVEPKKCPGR
T2 sequence (P00747 581-810 limits assumed): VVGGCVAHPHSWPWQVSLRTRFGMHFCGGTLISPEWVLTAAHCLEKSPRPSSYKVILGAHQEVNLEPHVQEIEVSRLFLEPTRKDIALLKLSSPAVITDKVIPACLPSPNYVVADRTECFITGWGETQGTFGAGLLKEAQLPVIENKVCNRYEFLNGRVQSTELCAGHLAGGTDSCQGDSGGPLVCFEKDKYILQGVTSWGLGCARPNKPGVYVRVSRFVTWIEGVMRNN

Compound | IC50 [1] [nM] | IC50 [2] [nM] | solubility [3] [mM]
CNS(=O)(=O)c1ccc(OC(=O)c2ccc(NC(=N)N)cc2)cc1 [Compound No. 1] | 3 | 3.1 | > 20
CN(C)S(=O)(=O)c1ccc(OC(=O)c2ccc(NC(=N)N)cc2)cc1 [Compound No. 2] | 2 | 6.4 | > 20
N=C(N)Nc1ccc(C(=O)Oc2ccc(S(N)(=O)=O)cc2)cc1 [Compound No. 3] | 2.2 | 4.8 | > 20
CN(C)C(=O)Cc1ccc(OC(=O)c2ccc(NC(=N)N)cc2)cc1 [Compound No. 4] | 3.4 | 270 | > 20
CNC(=O)Cc1ccc(OC(=O)c2ccc(NC(=N)N)cc2)cc1 [Compound No. 5] | 9.1 | 410 | > 20
CN(C)C(=O)c1ccc(OC(=O)c2ccc(NC(=N)N)cc2)cc1 [Compound No. 6] | 11 | 95 | > 20
